According to US9034886B2, “4-aminoquinazoline derivatives and uses thereof” (Shanghai Institute of Pharmaceutical Industry, priority 2011, dated 2015):

How the values were obtained:
[1] = tested on: PANC-1 human pancreatic cancer cells; experiment: In vitro anti-proliferative effect, CCK-8 method, PANC-1; format: cell-based; conditions: Homo sapiens, PANC-1
Summary of the method: (§1)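 Compounds were tested at 100 μM and 10 μM, and growth inhibition was measured by CCK-8 assay. Values are percent inhibition at each concentration.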

[2] = tested on: K562 human chronic myelogenous leukemia cells; experiment: In vitro anti-proliferative effect, CCK-8 method, K562; format: cell-based; conditions: Homo sapiens, K562
Summary of the method: (§2)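 K562 and Hut78 cells exposed to compounds at 100 μM and 10 μM. Percent inhibition of proliferation determined by CCK-8 read-out.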

[3] = tested on: MDA-MB-435s human breast cancer cells; experiment: In vitro anti-proliferative effect, CCK-8 method, MDA-MB-435s; format: cell-based; conditions: Homo sapiens, MDA-MB-435S
Summary of the method: as §1

[4] = tested on: A549 human lung cancer cells; experiment: In vitro anti-proliferative effect, CCK-8 method, A549; format: cell-based; conditions: Homo sapiens, A549
Summary of the method: as §1

HDACs = experiment: In vitro inhibition of HDACs (HDAC Inhibitor Drug Screening Kit, Biovision K340-100); format: biochemical
Protocol: The in vitro inhibitory activities of the compounds towards HDACs were tested according to the instructions in the HDAC Inhibitor Drug Screening Kit (Biovision/Catalog #K340-100).
(1) The compounds to be tested were each individually prepared as 2 mM, 200 μM and 40 μM solutions and their inhibitory activities at these concentrations were tested.

[5] = tested on: Colo320 human colorectal cancer cell lines; experiment: In vitro anti-proliferative effect, CCK-8 method, Colo320; format: cell-based; conditions: Homo sapiens, COLO 320, Colo320 cell strain, CCK-8 method; for inhibition at 10 µM: compound at 10 μM; for inhibition at 100 µM: compound at 100 μM
Summary of the method: as §1

[6] = Maximum tolerance dose through intragastrical administration; format: in vivo; conditions: mice, administrated intragastrically
Protocol: Forty ICR mice, half female and half male, weighing […] were divided into four groups, 10 mice in each group. After the mice were fasted for 6 h, the compound to be tested was administrated intragastrically to each group at a volume of 0.3 ml/10 g by using a sterile plastic syringe. General physical signs and the deaths of the animals were record at 1, 2 and 4 h after the administration. The animals were then observed continuously for 14 days and their weights, physical signs and deaths were observed and recorded every day. Dead animals were dissected to see if there was any visible pathological change in the animal's viscera and pathological examination was performed on suspicious tissues and organs. A part of the experimental results is as follows.

[7] = tested on: Hep3B2.1-7 human liver cancer cells; experiment: In vitro anti-proliferative effect, CCK-8 method, Hep3B; format: cell-based; conditions: Homo sapiens, Hep3B cell strain, CCK-8 method; for inhibition at 10 µM: compound at 10 μM; for inhibition at 100 µM: compound at 100 μM
Summary of the method: as §1

[8] = tested on: Hut78 T lymphocytic leukemia cells; experiment: In vitro anti-proliferative effect, CCK-8 method, Hut78; format: cell-based; conditions: Homo sapiens, HuT78, read-out: Hut-78 (inhibition %)
Summary of the method: as §2

[9] = tested on: Jurkat E6-1 human T-cell lymphoma; experiment: In vitro anti-proliferative effect, CCK-8 method, Jurkat E6-1; format: cell-based; conditions: Homo sapiens, Jurkat E6.1
Summary of the method: as §1

HDAC1 = HDAC1 (Homo sapiens (Human), UniProt Q13547); experiment: In vitro inhibition of subtype HDAC1 (HDAC1 Inhibitor Drug Screening Kit, Biovision); format: biochemical; conditions: for inhibition at 1 µM / inhibition at 10 µM: read-out: % Inhibition towards HDAC1; for inhibitory activity against HDAC1 compared with MS-275: both concentrations 10 μM and 1 μM
Protocol: The in vitro inhibitory activities of the compounds towards the subtype HDAC1 were tested according to the instructions in the HDAC1 Inhibitor Drug Screening Kit (Biovision).
(1) The compounds to be tested were each individually prepared as 10 μM and 1 μM solutions and their inhibitory activities at these concentrations were tested.
Each dilution sample was placed in two wells and the enzyme inhibition IC50 of the compound was tested.

[10] = tested on: PC-3 human prostate cancer; experiment: In vitro anti-proliferative effect, CCK-8 method, PC-3; format: cell-based; conditions: Homo sapiens, PC-3 cell strain, CCK-8 method; for inhibition at 10 µM: compound at 10 μM; for inhibition at 100 µM: compound at 100 μM
Summary of the method: as §1

HDAC1, sequence (Q13547 whole entry): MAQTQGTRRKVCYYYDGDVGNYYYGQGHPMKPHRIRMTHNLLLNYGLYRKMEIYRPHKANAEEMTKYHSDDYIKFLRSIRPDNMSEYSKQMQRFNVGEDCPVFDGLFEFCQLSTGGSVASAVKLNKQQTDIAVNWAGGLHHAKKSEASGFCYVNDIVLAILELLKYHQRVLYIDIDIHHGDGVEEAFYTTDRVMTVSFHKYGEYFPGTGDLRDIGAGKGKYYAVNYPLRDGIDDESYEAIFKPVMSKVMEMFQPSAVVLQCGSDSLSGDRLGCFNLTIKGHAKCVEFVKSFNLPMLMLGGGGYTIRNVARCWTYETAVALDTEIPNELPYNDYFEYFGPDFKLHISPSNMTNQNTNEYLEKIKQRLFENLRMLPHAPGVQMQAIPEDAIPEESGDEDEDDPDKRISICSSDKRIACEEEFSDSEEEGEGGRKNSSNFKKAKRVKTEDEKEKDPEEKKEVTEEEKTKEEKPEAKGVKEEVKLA

| SMILES | inhibition at 10 µM [1] | inhibition at 100 µM [1] | inhibition at 10 µM [2] | inhibition at 100 µM [2] | inhibition at 10 µM [3] | inhibition at 100 µM [3] | inhibition at 10 µM [4] | inhibition at 100 µM [4] | Inhibition percentage (%) towards HDACs (HDACs; 40 μM) | Inhibition percentage (%) towards HDACs (HDACs; 200 μM) | Inhibition percentage (%) towards HDACs (HDACs; 2 mM) | inhibition at 10 µM [5] | inhibition at 100 µM [5] | maximum tolerance dose [6] | inhibition at 10 µM [7] | inhibition at 100 µM [7] | inhibition at 10 µM [8] | inhibition at 100 µM [8] | inhibition at 10 µM [9] | inhibition at 100 µM [9] | other results |
| --- | --- | --- | --- | --- | --- | --- | --- | --- | --- | --- | --- | --- | --- | --- | --- | --- | --- | --- | --- | --- | --- |
| CS(=O)(=O)CCNCc1ccc(-c2ccc3ncnc(Nc4ccc(C(=O)Nc5cc(F)ccc5N)cc4)c3c2)o1 [Compound V-20, N-(2-amino-5-fluorophenyl)-4-[6-(5-((2-(methylsulfonyl)ethylamino)methyl)furyl)quinazoline-4-amino]benzamide] | -1.7% | 52% | 64.3% | 92.9% | 17% | 57.8% | 0% | 41.3% | 28.2% | 56.9% | 67.5% | 6.5% | 58.8% | over 5000 mg/kg | 23.5% | 60% | 44.4% | 85.7% | 84.8% | 89.4% | IC50 (HDACs): 1220 nM; inhibition at 1 µM (HDAC1): 53.5%; inhibition at 10 µM (HDAC1): 77.4%; inhibitory activity against HDAC1 compared with MS-275 (HDAC1): superior to that of MS-275; inhibition at 10 µM [10]: 48.1%; inhibition at 100 µM [10]: 75.5% |
| COC(=O)Cc1ccc2ncnc(Nc3ccc(C(=O)Nc4ccccc4N)cc3)c2c1 [Compound V-22, N-(2-aminophenyl)-4-(6-methoxycarbonylmethylquinazoline-4-amino)benzamide] | 12.3% | 39.4% | 60.9% | 83.4% | 18% | 81.4% | 21.8% | 69.9% | 19.9% | 47.5% | 84.2% | 5.4% | 40.8% | over 2000 mg/kg | 38.3% | 69.2% | 42.3% | 91.8% | 83.1% | 88.2% | inhibition at 1 µM (HDAC1): 23.1%; inhibition at 10 µM (HDAC1): 63%; inhibition at 10 µM [10]: 44.6%; inhibition at 100 µM [10]: 69% |
| COc1cc2ncnc(Nc3ccc(C(=O)Nc4cc(-c5ccccc5)ccc4N)cc3)c2cc1OC [Compound V-24, N-[2-amino-5-(phenyl)phenyl]-4-(6,7-dimethoxyquinazoline-4-amino)benzamide] | 17.5% | 22.1% | -1.7% | 75.3% | -10.8% | 24.5% | 7.3% | 20.8% | 24.2% | 55.2% | 76.1% | -1.7% | 16.5% | over 2000 mg/kg | 14.3% | 69.5% | 15.5% | 72.9% | 30.7% | 91.4% | inhibition at 1 µM (HDAC1): 51%; inhibition at 10 µM (HDAC1): 73.3%; inhibitory activity against HDAC1 compared with MS-275 (HDAC1): superior to that of MS-275; inhibition at 10 µM [10]: 13.1%; inhibition at 100 µM [10]: 63.7% |
| COc1cc2ncnc(Nc3ccc(C(=O)Nc4cc(-c5ccco5)ccc4N)cc3)c2cc1OC [Compound V-25, N-[2-amino-5-(2-furyl)phenyl]-4-(6,7-dimethoxyquinazoline-4-amino)benzamide] | 20.8% | 39.5% | 34.1% | 64.8% | 30.8% | 61.2% | 2.4% | 12% | 20.5% | 55.2% | 72.8% | 7.9% | 14.1% | over 5000 mg/kg | 11.3% | 40.6% | 18.1% | 60% | 12.5% | 83.3% | inhibition at 1 µM (HDAC1): 24.2%; inhibition at 10 µM (HDAC1): 53.8%; inhibition at 10 µM [10]: -9.4%; inhibition at 100 µM [10]: 22.1% |
| Nc1ccc(F)cc1NC(=O)c1ccc(CNc2ncnc3ccccc23)cc1 [Compound V-29, N-(2-amino-5-fluorophenyl)-4-[(quinazoline-4-amino)methyl]benzamide] | 0.9% | 18.4% | 57.4% | 83.8% | 10.1% | 78.5% | 6.3% | 69.8% | 8.6% | 31.0% | 37.8% | -7.2% | 35.5% | over 5000 mg/kg | 22.5% | 60.5% | 79.4% | 94% | 51.5% | 96.2% | IC50 (HDAC1): 517 nM; inhibition at 1 µM (HDAC1): 41.4%; inhibition at 10 µM (HDAC1): 63.2%; inhibition at 10 µM [10]: 88%; inhibition at 100 µM [10]: 94.5% |
